These results are taken from patent US9926302B2, “Heteroaryl substituted heterocyclyl sulfones” (priority 2014, dated 2018).

The structures appear in SMILES notation. Bounds are passed on as bounds.

The first assay deals with T1, Human CaV2.2 channels (Homo sapiens, UniProt Q00975).
T1 construct: expressed in transfected cells
T1 sequence (P54289 947-1103): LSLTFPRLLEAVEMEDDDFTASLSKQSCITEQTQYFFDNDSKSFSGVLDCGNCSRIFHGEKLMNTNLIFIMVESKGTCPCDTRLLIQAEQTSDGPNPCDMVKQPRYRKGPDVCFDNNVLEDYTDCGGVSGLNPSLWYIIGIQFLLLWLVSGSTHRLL
T1 sequence (P54289 25-946): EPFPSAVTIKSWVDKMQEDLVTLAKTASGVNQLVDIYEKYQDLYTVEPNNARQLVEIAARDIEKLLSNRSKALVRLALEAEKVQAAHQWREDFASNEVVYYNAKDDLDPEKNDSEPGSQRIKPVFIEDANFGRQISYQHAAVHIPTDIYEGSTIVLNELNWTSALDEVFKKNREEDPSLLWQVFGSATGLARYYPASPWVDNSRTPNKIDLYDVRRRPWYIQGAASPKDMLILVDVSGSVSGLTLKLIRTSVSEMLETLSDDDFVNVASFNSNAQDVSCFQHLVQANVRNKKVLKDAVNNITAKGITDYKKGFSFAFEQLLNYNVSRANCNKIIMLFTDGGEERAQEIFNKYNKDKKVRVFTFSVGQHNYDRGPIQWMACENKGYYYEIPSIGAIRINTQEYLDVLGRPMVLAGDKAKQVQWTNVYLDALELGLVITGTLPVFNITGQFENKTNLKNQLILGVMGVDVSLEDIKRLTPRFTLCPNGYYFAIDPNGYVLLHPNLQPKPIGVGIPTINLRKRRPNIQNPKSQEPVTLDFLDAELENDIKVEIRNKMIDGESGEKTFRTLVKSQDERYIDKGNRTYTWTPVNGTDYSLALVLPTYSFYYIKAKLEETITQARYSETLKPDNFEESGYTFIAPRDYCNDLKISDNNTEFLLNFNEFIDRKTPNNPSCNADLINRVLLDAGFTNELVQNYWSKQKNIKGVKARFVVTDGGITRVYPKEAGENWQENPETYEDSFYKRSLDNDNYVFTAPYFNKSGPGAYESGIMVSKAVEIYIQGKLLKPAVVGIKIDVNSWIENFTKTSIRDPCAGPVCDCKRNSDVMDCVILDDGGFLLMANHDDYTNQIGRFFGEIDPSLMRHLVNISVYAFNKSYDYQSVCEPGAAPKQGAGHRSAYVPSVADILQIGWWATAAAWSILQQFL
T1 sequence (P54284 whole entry, further chain): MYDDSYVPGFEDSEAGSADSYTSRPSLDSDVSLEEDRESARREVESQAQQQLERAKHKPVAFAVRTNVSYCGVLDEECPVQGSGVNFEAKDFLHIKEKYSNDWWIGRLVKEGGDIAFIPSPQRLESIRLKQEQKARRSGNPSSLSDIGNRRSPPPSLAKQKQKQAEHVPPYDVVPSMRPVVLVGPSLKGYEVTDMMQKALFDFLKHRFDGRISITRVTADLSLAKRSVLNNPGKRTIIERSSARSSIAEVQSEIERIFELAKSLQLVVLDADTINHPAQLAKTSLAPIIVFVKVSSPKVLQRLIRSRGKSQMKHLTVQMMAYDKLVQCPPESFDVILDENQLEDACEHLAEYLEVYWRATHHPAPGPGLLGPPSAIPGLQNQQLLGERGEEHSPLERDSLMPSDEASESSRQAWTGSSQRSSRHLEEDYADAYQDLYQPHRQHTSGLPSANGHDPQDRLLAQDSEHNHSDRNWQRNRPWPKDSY
T1 sequence (Q00975 whole entry): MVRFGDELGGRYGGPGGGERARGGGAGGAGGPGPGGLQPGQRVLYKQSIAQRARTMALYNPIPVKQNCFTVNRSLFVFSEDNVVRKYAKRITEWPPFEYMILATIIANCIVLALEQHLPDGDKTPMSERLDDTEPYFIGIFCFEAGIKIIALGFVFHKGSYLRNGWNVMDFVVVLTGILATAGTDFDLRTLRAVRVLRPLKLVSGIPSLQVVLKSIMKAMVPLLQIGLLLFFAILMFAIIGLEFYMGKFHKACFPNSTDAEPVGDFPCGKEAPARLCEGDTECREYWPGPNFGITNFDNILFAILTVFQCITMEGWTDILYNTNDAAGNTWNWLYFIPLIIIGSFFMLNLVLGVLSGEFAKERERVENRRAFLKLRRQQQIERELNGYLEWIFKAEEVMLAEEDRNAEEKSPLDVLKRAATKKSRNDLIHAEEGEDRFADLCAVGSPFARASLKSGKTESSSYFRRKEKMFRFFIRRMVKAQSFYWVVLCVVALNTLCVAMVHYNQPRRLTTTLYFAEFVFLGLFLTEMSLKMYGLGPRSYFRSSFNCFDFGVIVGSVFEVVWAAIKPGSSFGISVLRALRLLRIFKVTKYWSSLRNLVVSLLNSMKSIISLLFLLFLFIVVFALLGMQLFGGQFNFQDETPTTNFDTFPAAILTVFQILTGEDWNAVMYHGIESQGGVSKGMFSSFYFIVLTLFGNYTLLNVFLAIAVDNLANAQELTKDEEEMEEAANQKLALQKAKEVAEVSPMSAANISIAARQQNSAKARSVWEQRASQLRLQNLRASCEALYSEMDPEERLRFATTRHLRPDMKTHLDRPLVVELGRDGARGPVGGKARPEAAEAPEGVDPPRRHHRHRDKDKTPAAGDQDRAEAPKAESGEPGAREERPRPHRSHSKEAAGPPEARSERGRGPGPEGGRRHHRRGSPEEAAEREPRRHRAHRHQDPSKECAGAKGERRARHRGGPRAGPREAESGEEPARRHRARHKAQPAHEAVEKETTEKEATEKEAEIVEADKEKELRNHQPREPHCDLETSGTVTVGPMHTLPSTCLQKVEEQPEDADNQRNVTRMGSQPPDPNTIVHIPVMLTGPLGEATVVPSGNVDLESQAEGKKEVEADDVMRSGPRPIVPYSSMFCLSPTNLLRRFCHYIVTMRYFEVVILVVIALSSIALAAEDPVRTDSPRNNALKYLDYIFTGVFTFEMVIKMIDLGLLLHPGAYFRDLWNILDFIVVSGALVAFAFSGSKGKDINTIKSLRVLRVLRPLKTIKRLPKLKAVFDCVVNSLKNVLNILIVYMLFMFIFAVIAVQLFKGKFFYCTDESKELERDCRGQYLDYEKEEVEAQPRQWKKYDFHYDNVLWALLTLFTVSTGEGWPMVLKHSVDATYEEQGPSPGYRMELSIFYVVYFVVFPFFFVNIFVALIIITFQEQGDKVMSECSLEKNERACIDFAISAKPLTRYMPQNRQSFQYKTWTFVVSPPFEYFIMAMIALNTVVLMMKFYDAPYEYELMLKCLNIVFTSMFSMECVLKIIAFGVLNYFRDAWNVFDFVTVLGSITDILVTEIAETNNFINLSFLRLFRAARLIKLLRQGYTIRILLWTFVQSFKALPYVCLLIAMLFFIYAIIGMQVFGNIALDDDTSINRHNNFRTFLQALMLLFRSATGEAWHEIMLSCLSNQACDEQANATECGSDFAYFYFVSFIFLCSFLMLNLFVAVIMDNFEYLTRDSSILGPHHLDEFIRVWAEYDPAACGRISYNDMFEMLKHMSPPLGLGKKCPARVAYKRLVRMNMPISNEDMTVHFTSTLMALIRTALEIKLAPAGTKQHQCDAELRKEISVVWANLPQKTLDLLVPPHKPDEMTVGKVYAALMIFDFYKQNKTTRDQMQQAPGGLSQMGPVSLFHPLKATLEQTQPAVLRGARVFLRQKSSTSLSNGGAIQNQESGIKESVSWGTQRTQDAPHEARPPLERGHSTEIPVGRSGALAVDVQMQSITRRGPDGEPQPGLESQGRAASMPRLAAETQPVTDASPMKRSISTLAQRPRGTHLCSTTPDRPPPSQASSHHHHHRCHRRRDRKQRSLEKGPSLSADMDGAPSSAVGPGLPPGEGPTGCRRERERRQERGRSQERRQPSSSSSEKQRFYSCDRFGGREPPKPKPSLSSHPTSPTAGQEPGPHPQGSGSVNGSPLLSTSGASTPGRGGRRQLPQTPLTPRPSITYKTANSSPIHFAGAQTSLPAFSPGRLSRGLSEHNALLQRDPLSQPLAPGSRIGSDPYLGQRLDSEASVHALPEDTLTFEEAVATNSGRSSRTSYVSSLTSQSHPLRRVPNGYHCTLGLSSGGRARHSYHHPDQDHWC
Briefly: Fluorescence assay for CaV2.2 channels using potassium depolarization to induce channel opening (FLIPR, Fluo 4). The note with it: 3 μM test compound; alternative assay buffer 30 mM KCl (inactivated channel state); HEK293 cells stably expressing human CaV2.2. The format is cell-based. An excerpt:
In the process, the Ca^2+ influx is quantified in the FLIPR assay with the aid of a Ca^2+-sensitive dye (type Fluo-4, Molecular Probes Europe BV, Leiden, the Netherlands) in a fluorescent imaging plate reader (FLIPR 3, Molecular Devices, Sunnyvale, USA), as described hereinafter.
2.1 Fluorescence Assay for CaV2.2 Channels Using Potassium Depolarization to Induce Channel Opening
Human CaV2.2 channels were stably expressed in HEK293 cells together with alpha2-delta and beta subunits of voltage gated calcium channels. In addition, an inwardly rectifying potassium channel (Kir2.3) was stably expressed in these cells to augment control of the cell membrane potential by the concentration of extracellular potassium ions. Raise of the extracellular potassium concentration leads to depolarization of the membrane potential and thus regulates the voltage dependent state of CaV2.2 channels. For preparation, cells were seeded in black poly-D-lysine coated 96-well plates (Becton Dickinson, Biocoat 4640) in 100 μL medium [500 mL DMEM/F-12 plus Glutamax (Invitrogen 31331-093) plus 5.5 mL MEM NEAA 100× (Invitrogen 11140-035) plus 50 mL FBS decomplemented (Invitrogen 10270-106) plus 200 μg/mL Geneticin (Invitrogen 10131-027) plus 50 μg/mL Hygromycin B (Invitrogen 10687-010) plus 2 μg/mL Blasticidin (anti-bl5b Invivo-Gen) plus 0.2 μg/mL Puromycin (A 11138-03)] at a cell density of 30.000 cells per well. Plates were incubated at 37° C. (5% CO2) for 20 to 23 h. On the day of experiment medium was discarded and cells were loaded with Fluo 4 by addition of 100 μL of basic assay buffer (10 mM HEPES, 1 mM KCl, 149 mM NaCl, 0.8 mM CaCl2, 1.7 mM MgCl2, 10 mM Glucose, 0.1% BSA. pH 7.4) containing 2 μM Fluo 4 (Molecular Probes; F-14201), 0.01% pluronic acid (Molecular Probes; P-6866) and 2.5 mM probenecid (Molecular Probes; P36400). Cells were incubated in the dark at 25° C. for 60 min. Then dye containing buffer was discarded and 100 μL basic (1 mM KCl) or alternative (30 mM KCl) assay buffer was added. The alternative assay buffer contained altered concentrations of KCl (30 mM) and NaCl (120 mM) and was used in order to promote the inactivated channel state. After that 25 μL of basic or alternative assay buffer with or without test compound were added and cells were incubated again in the dark at 25° C. for 15 min. Fluorescence intensity was measured on a FLIPR 3 instrument (Molecular Devices Corp., Sunnyvale, Calif.) with excitation at 480 nm and emission at 535 nm. After continuously reading fluorescence for 30 sec, 50 μL of basic assay buffer containing 210 mM KCl (NaCl omitted) were added for depolarization. Peak fluorescent signal intensity was determined and the amplitude of the peak signal, normalized to base line, was used to measure channel inhibition by test compounds.
For `Cc1ccc(OCC2CC(C)(S(=O)(=O)c3cccc(C(F)(F)F)c3)CCO2)cn1` (single isomer, unassigned) [SC-112, 2-Methyl-5-[[4-methyl-4-[[3-(trifluoromethyl)phenyl]sulfonyl]-tetrahydro-pyran-2-yl]-methoxy]-pyridine], the “Activity Category: %-Inhib (CaV2.2) @3 μM @30 mM KCl” value (“Activity Category: %-Inhib” below) was “C (%-Inhibition >40% up to ≤75%)”. Still for that read-out and setting: the same measure for `Cc1ccc(OCC2CC(C)(S(=O)(=O)c3cccc(C(F)(F)F)c3)CCO2)cn1` (single isomer, unassigned) [SC-113, 2-Methyl-5-[[4-methyl-4-[[3-(trifluoromethyl)phenyl]sulfonyl]-tetrahydro-pyran-2-yl]-methoxy]-pyridine]: “B (%-Inhibition >75% up to ≤95%)”. Same read-out and setting: the same measure for `CC1(S(=O)(=O)c2cccc(C(F)(F)F)c2)CCOC(c2cncc(C(F)(F)F)c2)C1` (single isomer, unassigned) [SC-116, 3-[4-Methyl-4-[[3-(trifluoromethyl)phenyl]sulfonyl]-tetrahydro-pyran-2-yl]-5-(trifluoromethyl)-pyridine]: “A (%-Inhibition >95%)”; for `CC1(S(=O)(=O)c2cccc(C(F)(F)F)c2)CCOC(COc2ccc(C3CC3)nc2)C1` (single isomer, unassigned) [SC-117, 2-Cyclopropyl-5-[[4-methyl-4-[[3-(trifluoromethyl)phenyl]sulfonyl]-tetrahydro-pyran-2-yl]-methoxy]-pyridine]: “B (%-Inhibition >75% up to ≤95%)”; for `CC1(S(=O)(=O)c2cccc(C(F)(F)F)c2)CCOC(c2nnc(C(F)(F)F)o2)C1` (single isomer, unassigned) [SC-121, 2-[4-Methyl-4-[[3-(trifluoromethyl)phenyl]sulfonyl]-tetrahydro-pyran-2-yl]-5-(trifluoromethyl)-[1,3,4]oxadiazole]: “C (%-Inhibition >40% up to ≤75%)”.

As for `CC1(S(=O)(=O)c2cccc(C(F)(F)F)c2)CCOC(c2nnc(C(F)(F)F)o2)C1` (single isomer, unassigned) [SC-122, 2-[4-Methyl-4-[[3-(trifluoromethyl)phenyl]sulfonyl]-tetrahydro-pyran-2-yl]-5-(trifluoromethyl)-[1,3,4]oxadiazole], the “Activity Category: %-Inhib” value is recorded as “B (%-Inhibition >75% up to ≤95%)”.

`CC1(S(=O)(=O)c2cccc(C(F)(F)F)c2)CCOC(c2nnc(C(F)F)o2)C1` (single isomer, unassigned) [SC-123, 2-(Difluoro-methyl)-5-[4-methyl-4-[[3-(trifluoromethyl)phenyl]sulfonyl]-tetrahydro-pyran-2-yl]-[1,3,4]oxadiazole]: the “Activity Category: %-Inhib” value is reported as “B (%-Inhibition >75% up to ≤95%)”. Same read-out and setting: as for `CC1(S(=O)(=O)c2cccc(C(F)(F)F)c2)CCOC(c2nnc(C(F)F)o2)C1` (single isomer, unassigned) [SC-124, 2-(Difluoro-methyl)-5-[4-methyl-4-[[3-(trifluoromethyl)phenyl]sulfonyl]-tetrahydro-pyran-2-yl]-[1,3,4]oxadiazole], the entry is “C (%-Inhibition >40% up to ≤75%)”; as for `CC(C)c1nnc(C2CC(C)(S(=O)(=O)c3cccc(C(F)(F)F)c3)CCO2)o1` (single isomer, unassigned) [SC-125, 2-Isopropyl-5-[4-methyl-4-[[3-(trifluoromethyl)phenyl]sulfonyl]-tetrahydro-pyran-2-yl]-[1,3,4]oxadiazole], “C (%-Inhibition >40% up to ≤75%)”. As to `CC(C)c1nnc(C2CC(C)(S(=O)(=O)c3cccc(C(F)(F)F)c3)CCO2)o1` (single isomer, unassigned) [SC-126, 2-Isopropyl-5-[4-methyl-4-[[3-(trifluoromethyl)phenyl]sulfonyl]-tetrahydro-pyran-2-yl]-[1,3,4]oxadiazole], the “Activity Category: %-Inhib” value was “B (%-Inhibition >75% up to ≤95%)”. Same read-out and setting: as for `CC1(S(=O)(=O)c2cccc(C(F)(F)F)c2)CCOC(c2nnc(C3CC3)o2)C1` (single isomer, unassigned) [SC-128, 2-Cyclopropyl-5-[4-methyl-4-[[3-(trifluoromethyl)phenyl]sulfonyl]-tetrahydro-pyran-2-yl]-[1,3,4]oxadiazole], the entry is “B (%-Inhibition >75% up to ≤95%)”.

Regarding `CC1(S(=O)(=O)c2cccc(C(F)(F)F)c2)CCOC(c2nnc(C3CC3)o2)C1` (single isomer, unassigned) [SC-129, 2-Cyclopropyl-5-[4-methyl-4-[[3-(trifluoromethyl)phenyl]sulfonyl]-tetrahydro-pyran-2-yl]-[1,3,4]oxadiazole], the “Activity Category: %-Inhib” value is listed as “C (%-Inhibition >40% up to ≤75%)”.

The assay is the same for the next values; noted with them: HEK293, 3 μM test compound; alternative assay buffer 30 mM KCl (inactivated channel state); HEK293 cells stably expressing human CaV2.2; read-out: Activity Category: %-Inhib (CaV2.2) @3 μM @30 mM KCl.
Take `Cn1nc(C2CC2)cc1C1CC(C)(S(=O)(=O)c2cccc(C(F)(F)F)c2)CCO1` (racemic) [SC-434, 3-Cyclopropyl-1-methyl-5-[4-methyl-4-[[3-(trifluoromethyl)phenyl]sulfonyl]-tetrahydro-pyran-2-yl]-1H-pyrazole]: the inhibition at 3 µM was in the range of 75 to 95%. Same read-out and setting: the same measure for `CC1(S(=O)(=O)c2cccc(C(F)(F)F)c2)CCOC(c2ncc(C3CC3)cc2Cl)C1` (racemic) [SC-435, 3-Chloro-5-cyclopropyl-2-[4-methyl-4-[[3-(trifluoromethyl)phenyl]sulfonyl]-tetrahydro-pyran-2-yl]-pyridine]: over 95%. Still for that read-out and setting: the same measure for `CC1(S(=O)(=O)c2cccc(C(F)(F)F)c2)CCOC(c2ncc(OC(F)F)cc2Cl)C1` (racemic) [SC-438, 3-Chloro-5-(difluoro-methoxy)-2-[4-methyl-4-[[3-(trifluoromethyl)phenyl]sulfonyl]-tetrahydro-pyran-2-yl]-pyridine]: over 95%; for `Cc1cc(S(C)(=O)=O)cnc1C1CC(C)(S(=O)(=O)c2cccc(C(F)(F)F)c2)CCO1` (racemic) [SC-441, 3-Methyl-5-methylsulfonyl-2-[4-methyl-4-[[3-(trifluoromethyl)phenyl]sulfonyl]-tetrahydro-pyran-2-yl]-pyridine]: 75 to 95%; for `Cc1cc(S(C)(=O)=O)cnc1C1CC(C)(S(=O)(=O)c2cccc(OC(F)(F)F)c2)CCO1` (racemic) [SC-451, 3-Methyl-5-methylsulfonyl-2-[4-methyl-4-[[3-(trifluoromethyloxy)-phenyl]sulfonyl]-tetrahydro-pyran-2-yl]-pyridine]: 40 to 75%. The same measure, in the same setting: as for `CC1(S(=O)(=O)c2cccc(C(F)(F)F)c2)CCOC(c2noc(C3CC3)n2)C1` (single isomer, unassigned) [SC-110, 5-Cyclopropyl-3-[4-methyl-4-[[3-(trifluoromethyl)phenyl]sulfonyl]-tetrahydro-pyran-2-yl]-[1,2,4]oxadiazole], the figure is 75 to 95%; as for `CC1(S(=O)(=O)c2cccc(C(F)(F)F)c2)CCOC(c2cncc(C(F)(F)F)c2)C1` (single isomer, unassigned) [SC-115, 3-[4-Methyl-4-[[3-(trifluoromethyl)phenyl]sulfonyl]-tetrahydro-pyran-2-yl]-5-(trifluoromethyl)-pyridine], 75 to 95%. For `CC1(S(=O)(=O)c2cccc(C(F)(F)F)c2)CCOC(COc2ccc(C3CC3)nc2)C1` (single isomer, unassigned) [SC-118, 2-Cyclopropyl-5-[[4-methyl-4-[[3-(trifluoromethyl)phenyl]sulfonyl]-tetrahydro-pyran-2-yl]-methoxy]-pyridine], the inhibition at 3 µM is over 95%. Still for that read-out and setting: as for `CC1(S(=O)(=O)c2cccc(C(F)(F)F)c2)CCOC(c2ncc(S(C)(=O)=O)cc2F)C1` (single isomer, unassigned) [SC-119, 3-Fluoro-5-methylsulfonyl-2-[4-methyl-4-[[3-(trifluoromethyl)phenyl]sulfonyl]-tetrahydro-pyran-2-yl]-pyridine], the figure is 75 to 95%. On the same count and under the same terms, the same measure for `CC1(S(=O)(=O)c2cccc(C(F)(F)F)c2)CCOC(c2ncc(S(C)(=O)=O)cc2Cl)C1` (single isomer, unassigned) [SC-130, 3-Chloro-5-methylsulfonyl-2-[4-methyl-4-[[3-(trifluoromethyl)phenyl]sulfonyl]-tetrahydro-pyran-2-yl]-pyridine]: 75 to 95%.
